Consider 18 molecules from ChEMBL document CHEMBL1123491, “N6-substituted N-alkyladenosine-5'-uronamides: bifunctional ligands having recognition groups for A1 and A2 adenosine receptors” (J Med Chem, 1986).

In test [1] the target is Adenosine A2 receptor (Rattus norvegicus, UniProt P29276+P30543). The test is described as follows: Potency against PC12 cell A2 adenosine receptor by adenylate cyclase activation. As to conditions: pc-12. Type of test: cell-based.
For test [2], the target named is T1, Adenosine receptor A1 (Rattus norvegicus, UniProt P25099).
T1 sequence (P25099 whole entry): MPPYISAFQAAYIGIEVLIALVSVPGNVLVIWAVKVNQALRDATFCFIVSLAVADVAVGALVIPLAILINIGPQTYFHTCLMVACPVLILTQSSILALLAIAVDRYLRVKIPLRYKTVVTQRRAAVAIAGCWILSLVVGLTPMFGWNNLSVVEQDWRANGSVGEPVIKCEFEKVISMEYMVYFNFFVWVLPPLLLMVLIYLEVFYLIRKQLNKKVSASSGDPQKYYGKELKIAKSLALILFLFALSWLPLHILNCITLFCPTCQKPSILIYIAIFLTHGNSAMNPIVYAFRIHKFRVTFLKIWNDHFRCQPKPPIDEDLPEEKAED
As to the kind of experiment: Potency against rat brain adenosine A1 receptor.

For test [3], the target named is Adenosine A2 receptor (Homo sapiens, UniProt P29275+P29274). The test is described as follows: Potency against human platelet A2 adenosine receptor.
Test [4] deals with T2, Adenosine receptor A1 (Rattus norvegicus) (UniProt P25099).
T2 sequence (whole entry): T1 sequence (P25099 whole entry)
The test is described as follows: Potency against rat brain adenosine A1 receptor at 10 uM.

In test [5] the target is T1, Adenosine receptor A1. As to the kind of experiment: Potency against rat brain A1 adenosine receptor.

Bounds are passed on as bounds.

As a reminder, the EC50 is the concentration needed to bring the measured effect to its halfway point. The low end stands for a more potent agent, the high end for a less potent agent. One may read the IC50 as the concentration at which inhibition is half-maximal. Read a high IC50 as a need for much substance. Molecule `CCC(CC)Nc1ncnc2c1ncn2C1O[C@H](C(=O)N(CC)CC)[C@@H](O)[C@H]1O` (some centres undefined) showed an EC50 at Adenosine A2 receptor [1] greater than 100 µM. In addition, half-maximal inhibition against Adenosine receptor A1 [2] (IC50) was put at 1.7 µM.
In turn, `Nc1ncnc2c1ncn2[C@@H]1O[C@H](C(=O)NC2CC2)[C@@H](O)[C@H]1O` registered an EC50 on Adenosine A2 receptor [3] of 0.26 µM.
`CCC(CC)Nc1ncnc2c1ncn2C1O[C@H](C(=O)NC)[C@@H](O)[C@H]1O` (some centres undefined) yielded a half-maximal effective concentration (EC50) at Adenosine A2 receptor [1] of 6.4 µM. On Adenosine receptor A1 [2], this molecule showed an IC50 of 0.02 µM.
On the same counts, the results for `CCC(CC)NC(=O)[C@H]1OC(n2cnc3c(NC(CC)CC)ncnc32)[C@H](O)[C@@H]1O` (some centres undefined) are greater than 100 µM and 1.4 µM.
What is called inhibition is the share of the control response that was lost under treatment. Read a high inhibition as a strong effect. Consider `O=C([C@H]1OC(n2cnc3c(N4CCCCC4)ncnc32)[C@H](O)[C@@H]1O)N1CCCCC1` (some centres undefined), for which, in test [4], the inhibition was 0%. At Adenosine A2 receptor [1], this molecule displayed a concentration for a half-maximal effect (EC50) greater than 100 µM.
In turn, `CCC(CC)Nc1ncnc2c1ncn2C1O[C@H](C(=O)NC(C)C)[C@@H](O)[C@H]1O` (some centres undefined) yielded an EC50 on Adenosine A2 receptor [1] of 5.1 µM. Further, the IC50 at Adenosine receptor A1 [5] was determined as 0.011 µM.
For `CNC(=O)[C@H]1O[C@@H](n2cnc3c(N)ncnc32)[C@H](O)[C@@H]1O`, the EC50 at Adenosine A2 receptor [3] amounted to 1.7 µM. The same molecule registered a 50% inhibitory concentration (IC50) against Adenosine receptor A1 [2] of 0.105 µM.
For `CCNC(=O)[C@H]1O[C@@H](n2cnc3c(N[C@H](C)Cc4ccccc4)ncnc32)[C@H](O)[C@@H]1O`, the EC50 on Adenosine A2 receptor [3] is 3.1 µM; on Adenosine A2 receptor [1], 0.98 µM. At Adenosine receptor A1 [2], this molecule came in with a half-inhibitory concentration (IC50) of 0.0024 µM.
`CCNC(=O)[C@H]1O[C@@H](n2cnc3c(N[C@@H](CC)Cc4ccccc4)ncnc32)[C@H](O)[C@@H]1O`: on Adenosine receptor A1 [2], the concentration for half-maximal inhibition (IC50) was found to be 0.026 µM.
At Adenosine A2 receptor [1], `CCCCN(C)C(=O)[C@H]1OC(n2cnc3c(NC(CC)CC)ncnc32)[C@H](O)[C@@H]1O` (some centres undefined) showed a half-maximal effective concentration (EC50) greater than 100 µM.
On Adenosine receptor A1 [2], `CCNC(=O)[C@H]1O[C@@H](n2cnc3c(N[C@H](CC)Cc4ccccc4)ncnc32)[C@H](O)[C@@H]1O` came in with a 50% inhibitory concentration (IC50) of 0.00052 µM.
`CCC(CC)Nc1ncnc2c1ncn2C1O[C@H](C(=O)N(C)C)[C@@H](O)[C@H]1O` (some centres undefined) registered a 50% effective concentration (EC50) on Adenosine A2 receptor [1] greater than 100 µM. At Adenosine receptor A1 [2], this molecule returned a half-maximal inhibitory concentration (IC50) of 13 µM.
The matching figures for `CCC(CC)Nc1ncnc2c1ncn2C1O[C@H](C(=O)NCc2ccccc2)[C@@H](O)[C@H]1O` (some centres undefined): greater than 100 µM and 0.104 µM.
`CCNC(=O)[C@H]1OC(n2cnc3c(NC4CCCCC4)ncnc32)[C@H](O)[C@@H]1O` (some centres undefined) showed an EC50 at Adenosine A2 receptor [1] of 1.83 µM.
Consider `C=CCNC(=O)[C@H]1OC(n2cnc3c(NC(CC)CC)ncnc32)[C@H](O)[C@@H]1O` (some centres undefined), for which, on Adenosine A2 receptor [1], the EC50 stood at 8.9 µM. The IC50 against Adenosine receptor A1 [2] came out at 0.017 µM.
As to `CCC(CC)Nc1ncnc2c1ncn2C1O[C@H](C(=O)NC2CC2)[C@@H](O)[C@H]1O` (some centres undefined), at Adenosine A2 receptor [1], the EC50 stood at 0.54 µM. Further, the midpoint of inhibition at Adenosine receptor A1 [5], the IC50, lay at 0.002 µM.
`CCNC(=O)[C@H]1OC(n2cnc3c(N(C)C)ncnc32)[C@H](O)[C@@H]1O` (some centres undefined): the EC50 on Adenosine A2 receptor [3] and on Adenosine A2 receptor [1] was greater than 100 µM each time. On Adenosine receptor A1 [2], this molecule showed an IC50 of 10 µM.
As for `NC(=O)[C@H]1OC(n2cnc3c(N)ncnc32)[C@H](O)[C@@H]1O` (some centres undefined), the EC50 amounted to 5.7 µM at Adenosine A2 receptor [3] and 1.56 µM at Adenosine A2 receptor [1]. Moreover, at Adenosine receptor A1 [2], the half-maximal inhibitory concentration (IC50) came out at 0.07 µM.
